According to ChEMBL document CHEMBL2440076, “New triarylpyrazoles as broad-spectrum anticancer agents: design, synthesis, and biological evaluation” (Eur J Med Chem, 2013):

Columns and labels:
Format in all cases: functional
SNB-19 [1] = assay: Growth inhibition of human SNB19 cells assessed as cell growth at 10^-5 M after 48 hrs by sulforhodamine B assay; settings: SNB-19, 48 h, read-out: Activity
U-251 [2] = assay: Growth inhibition of human U251 cells assessed as cell growth at 10^-8 M after 48 hrs by sulforhodamine B assay; settings: U-251, 48 h, read-out: Activity
TK-10 = assay: Growth inhibition of human TK10 cells assessed as cell growth at 10^-7 M after 48 hrs by sulforhodamine B assay; settings: TK-10, 48 h, read-out: Activity
Malme-3M [3] = assay: Growth inhibition of human MALME-3M cells assessed as cell growth at 10^-7 M after 48 hrs by sulforhodamine B assay; settings: read-out: Activity
HCT-116 = assay: Growth inhibition of human HCT116 cells assessed as cell growth at 10^-5 M after 48 hrs by sulforhodamine B assay; settings: HCT-116, 48 h, read-out: Activity
OVCAR-8 = assay: Growth inhibition of human OVCAR8 cells assessed as cell growth at 10^-6 M after 48 hrs by sulforhodamine B assay; settings: OVCAR-8, 48 h, read-out: Activity
SF-539 [4] = assay: Growth inhibition of human SF539 cells assessed as cell growth at 10^-7 M after 48 hrs by sulforhodamine B assay; settings: SF-539, 48 h, read-out: Activity
K562 [5] = assay: Growth inhibition of human K562 cells assessed as cell growth at 10^-4 M after 48 hrs by sulforhodamine B assay; settings: K562, 48 h, read-out: Activity
OVCAR-3 = assay: Growth inhibition of human OVCAR3 cells assessed as cell growth at 10^-5 M after 48 hrs by sulforhodamine B assay; settings: OVCAR-3, 48 h, read-out: Activity
SF-268 [6] = assay: Growth inhibition of human SF268 cells assessed as cell growth at 10^-8 M after 48 hrs by sulforhodamine B assay; settings: SF-268, 48 h, read-out: Activity
SNB-19 [7] = assay: Growth inhibition of human SNB19 cells assessed as cell growth at 10^-6 M after 48 hrs by sulforhodamine B assay; settings: SNB-19, 48 h, read-out: Activity
SR = assay: Growth inhibition of human SR cells assessed as cell growth at 10^-4 M after 48 hrs by sulforhodamine B assay; settings: read-out: Activity
T47D = assay: Growth inhibition of human T47D cells assessed as cell growth at 10^-5 M after 48 hrs by sulforhodamine B assay; settings: read-out: Activity
U-251 [8] = assay: Growth inhibition of human U251 cells assessed as cell growth at 10^-4 M after 48 hrs by sulforhodamine B assay; settings: U-251, 48 h, read-out: Activity
KM12 = assay: Growth inhibition of human KM12 cells assessed as cell growth at 10^-8 M after 48 hrs by sulforhodamine B assay; settings: KM12, 48 h, read-out: Activity
RXF 393 [9] = assay: Growth inhibition of human RXF393 cells assessed as cell growth at 10^-8 M after 48 hrs by sulforhodamine B assay; settings: RXF 393, 48 h, read-out: Activity
K562 [10] = assay: Growth inhibition of human K562 cells assessed as cell growth at 10^-8 M after 48 hrs by sulforhodamine B assay; settings: K562, 48 h, read-out: Activity
K562 [11] = assay: Growth inhibition of human K562 cells assessed as cell growth at 10^-5 M after 48 hrs by sulforhodamine B assay; settings: K562, 48 h, read-out: Activity
MOLT-4 [12] = assay: Growth inhibition of human MOLT4 cells assessed as cell growth at 10^-6 M after 48 hrs by sulforhodamine B assay; settings: MOLT-4, 48 h, read-out: Activity
OVCAR-5 = assay: Growth inhibition of human OVCAR5 cells assessed as cell growth at 10^-5 M after 48 hrs by sulforhodamine B assay; settings: OVCAR-5, 48 h, read-out: Activity
A549 [13] = assay: Growth inhibition of human A549/ATCC cells assessed as cell growth at 10^-5 M after 48 hrs by sulforhodamine B assay; settings: A549, 48 h, read-out: Activity
[14] = Growth inhibition of human Hs 578T cells assessed as cell growth at 10^-6 M after 48 hrs by sulforhodamine B assay; settings: read-out: Activity
SF-268 [15] = assay: Growth inhibition of human SF268 cells assessed as cell growth at 10^-6 M after 48 hrs by sulforhodamine B assay; settings: SF-268, 48 h, read-out: Activity
SK-MEL-28 = assay: Growth inhibition of human SK-MEL-28 cells assessed as cell growth at 10^-6 M after 48 hrs by sulforhodamine B assay; settings: SK-MEL-28, 48 h, read-out: Activity
MOLT-4 [16] = assay: Growth inhibition of human MOLT4 cells assessed as cell growth at 10^-5 M after 48 hrs by sulforhodamine B assay; settings: MOLT-4, 48 h, read-out: Activity
RXF 393 [17] = assay: Growth inhibition of human RXF393 cells assessed as cell growth at 10^-5 M after 48 hrs by sulforhodamine B assay; settings: RXF 393, 48 h, read-out: Activity
SNB-19 [18] = assay: Growth inhibition of human SNB19 cells assessed as cell growth at 10^-8 M after 48 hrs by sulforhodamine B assay; settings: SNB-19, 48 h, read-out: Activity
SF-539 [19] = assay: Growth inhibition of human SF539 cells assessed as cell growth at 10^-8 M after 48 hrs by sulforhodamine B assay; settings: SF-539, 48 h, read-out: Activity
CCRF-CEM = assay: Growth inhibition of human CCRF-CEM cells assessed as cell growth at 10^-8 M after 48 hrs by sulforhodamine B assay; settings: read-out: Activity
COLO 205 = assay: Growth inhibition of human COLO205 cells assessed as cell growth at 10^-8 M after 48 hrs by sulforhodamine B assay; settings: COLO 205, 48 h, read-out: Activity
Malme-3M [20] = assay: Growth inhibition of human MALME-3M cells assessed as cell growth at 10^-6 M after 48 hrs by sulforhodamine B assay; settings: read-out: Activity
A549 [21] = assay: Growth inhibition of human A549/ATCC cells assessed as cell growth at 10^-7 M after 48 hrs by sulforhodamine B assay; settings: A549, 48 h, read-out: Activity
K562 [22] = assay: Growth inhibition of human K562 cells assessed as cell growth at 10^-7 M after 48 hrs by sulforhodamine B assay; settings: K562, 48 h, read-out: Activity
BT-549 = assay: Growth inhibition of human BT549 cells assessed as cell growth at 10^-6 M after 48 hrs by sulforhodamine B assay; settings: BT-549, 48 h, read-out: Activity
MOLT-4 [23] = assay: Growth inhibition of human MOLT4 cells assessed as cell growth at 10^-7 M after 48 hrs by sulforhodamine B assay; settings: MOLT-4, 48 h, read-out: Activity
SNB-75 = assay: Growth inhibition of human SNB75 cells assessed as cell growth at 10^-5 M after 48 hrs by sulforhodamine B assay; settings: SNB-75, 48 h, read-out: Activity
NCI-H522 = assay: Growth inhibition of human NCI-H522 cells assessed as cell growth at 10^-8 M after 48 hrs by sulforhodamine B assay; settings: NCI-H522, 48 h, read-out: Activity
HCT-15 = assay: Growth inhibition of human HCT15 cells assessed as cell growth at 10^-7 M after 48 hrs by sulforhodamine B assay; settings: HCT-15, 48 h, read-out: Activity
HOP-92 = assay: Growth inhibition of human HOP92 cells assessed as cell growth at 10^-7 M after 48 hrs by sulforhodamine B assay; settings: HOP-92, 48 h, read-out: Activity

With `COc1cc(-c2nn(-c3cccc(NC(=O)c4ccc(N5CCOCC5)c(C(F)(F)F)c4)c3)cc2-c2ccncc2)ccc1Cl` the growth at 10 µM (SNB-19 [1]) was 22%, the growth at 0.01 µM (U-251 [2]) was 101% and the growth at 0.1 µM (TK-10) was 106%. The growth at 0.1 µM (Malme-3M [3]) was 52%, the growth at 10 µM (HCT-116) was 8% and the growth at 1 µM (OVCAR-8) was 30%. The growth at 0.1 µM (SF-539 [4]) was 68%, the growth at 100 µM (K562 [5]) was 3% and the growth at 10 µM (OVCAR-3) was -36%. For the same compound, the growth at 0.01 µM (SF-268 [6]) was 97%, the growth at 1 µM (SNB-19 [7]) was 38% and the growth at 100 µM (SR) was 6%. It also gave a growth at 10 µM (T47D) of 19%, a growth at 100 µM (U-251 [8]) of -59% and a growth at 0.01 µM (KM12) of 108%. It also gave a growth at 0.01 µM (RXF 393 [9]) of 118%, a growth at 0.01 µM (K562 [10]) of 99% and a growth at 10 µM (K562 [11]) of 2%. For the same compound, the growth at 1 µM (MOLT-4 [12]) was 38%, the growth at 10 µM (OVCAR-5) was 16% and the growth at 10 µM (A549 [13]) was 7%. It also gave a growth at 1 µM [14] of 6%, a growth at 1 µM (SF-268 [15]) of 41% and a growth at 1 µM (SK-MEL-28) of 56%. It also gave a growth at 10 µM (MOLT-4 [16]) of 9%, a growth at 10 µM (RXF 393 [17]) of -41% and a growth at 0.01 µM (SNB-19 [18]) of 92%. For the same compound, the growth at 0.01 µM (SF-539 [19]) was 93%, the growth at 0.01 µM (CCRF-CEM) was 94% and the growth at 0.01 µM (COLO 205) was 106%. For the same compound, the growth at 1 µM (Malme-3M [20]) was 33%, the growth at 0.1 µM (A549 [21]) was 69% and the growth at 0.1 µM (K562 [22]) was 29%. The growth at 1 µM (BT-549) was 54%, the growth at 0.1 µM (MOLT-4 [23]) was 105% and the growth at 10 µM (SNB-75) was -13%. The growth at 0.01 µM (NCI-H522) was 97%, the growth at 0.1 µM (HCT-15) was 65% and the growth at 0.1 µM (HOP-92) was 56%.

For `COc1cc(-c2nn(-c3cccc(NC(=O)c4ccccc4)c3)cc2-c2ccncc2)ccc1Cl`, the growth at 10 µM (SNB-19 [1]) was 30%, the growth at 0.01 µM (U-251 [2]) was 96% and the growth at 0.1 µM (TK-10) was 97%. It also gave a growth at 0.1 µM (Malme-3M [3]) of 82%, a growth at 10 µM (HCT-116) of 17% and a growth at 1 µM (OVCAR-8) of 50%. For the same compound, the growth at 0.1 µM (SF-539 [4]) was 91%, the growth at 100 µM (K562 [5]) was 11% and the growth at 10 µM (OVCAR-3) was 2%. For the same compound, the growth at 0.01 µM (SF-268 [6]) was 95%, the growth at 1 µM (SNB-19 [7]) was 47% and the growth at 100 µM (SR) was 12%. It also gave a growth at 10 µM (T47D) of 31%, a growth at 100 µM (U-251 [8]) of -18% and a growth at 0.01 µM (KM12) of 101%. It also gave a growth at 0.01 µM (RXF 393 [9]) of 100%, a growth at 0.01 µM (K562 [10]) of 102% and a growth at 10 µM (K562 [11]) of 10%. It also gave a growth at 1 µM (MOLT-4 [12]) of 41%, a growth at 10 µM (OVCAR-5) of 59% and a growth at 10 µM (A549 [13]) of 17%. The growth at 1 µM [14] was 52%, the growth at 1 µM (SF-268 [15]) was 47% and the growth at 1 µM (SK-MEL-28) was 60%. The growth at 10 µM (MOLT-4 [16]) was 18%, the growth at 10 µM (RXF 393 [17]) was -9% and the growth at 0.01 µM (SNB-19 [18]) was 99%. It also gave a growth at 0.01 µM (SF-539 [19]) of 91%, a growth at 0.01 µM (CCRF-CEM) of 97% and a growth at 0.01 µM (COLO 205) of 100%. For the same compound, the growth at 1 µM (Malme-3M [20]) was 38%, the growth at 0.1 µM (A549 [21]) was 94% and the growth at 0.1 µM (K562 [22]) was 99%. For the same compound, the growth at 1 µM (BT-549) was 53%, the growth at 0.1 µM (MOLT-4 [23]) was 99% and the growth at 10 µM (SNB-75) was 1%. The growth at 0.01 µM (NCI-H522) was 91%, the growth at 0.1 µM (HCT-15) was 96% and the growth at 0.1 µM (HOP-92) was 86%.
